From patent US7307085B2, “Mitotic kinesin inhibitors” (Merck & Co., Inc., priority 2003, dated 2007)

Target: T1, human KSP motor domain (KSP(367H)) (Homo sapiens, UniProt P52732)
T1 construct: were used to amplify the motor domain and the neck linker region; made in house; host or cells: E. coli BL21 (DE3)
T1 sequence (P52732 18-359 limits assumed): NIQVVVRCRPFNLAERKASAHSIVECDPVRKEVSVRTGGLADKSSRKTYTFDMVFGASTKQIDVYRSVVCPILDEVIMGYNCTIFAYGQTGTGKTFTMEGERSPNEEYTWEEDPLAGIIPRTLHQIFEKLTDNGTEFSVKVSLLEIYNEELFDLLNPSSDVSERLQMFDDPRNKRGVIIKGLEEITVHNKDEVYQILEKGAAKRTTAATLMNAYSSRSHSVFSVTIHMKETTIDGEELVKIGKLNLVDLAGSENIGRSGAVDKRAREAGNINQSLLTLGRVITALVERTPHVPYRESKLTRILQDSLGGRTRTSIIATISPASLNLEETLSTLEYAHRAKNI
Assay: Kinesin ATPase In Vitro Assay
Assay type: biochemical
Settings: human poly-histidine tagged KSP motor domain with microtubules, 1 mM ATP, 23° C.
Source text: I. Kinesin ATPase In Vitro Assay
Cloning and Expression of Human Poly-Histidine Tagged KSP Motor Domain_(KSP(367H))
Plasmids for the expression of the human KSP motor domain construct were cloned by PCR using a pBluescript full length human KSP construct (Blangy et al., Cell, vol. 83, pp 1159-1169, 1995) as a template. The N-terminal primer 5′-[…] (SEQ.ID.NO.: 1) and the C-terminal primer 5′-[…] […]lCAGGCTTATTCAATAT (SEQ.D.NO.: 2) were used to amplify the motor domain and the neck linker region. The PCR products were digested with AseI and XhoI, ligated into the NdeI/XhoI digestion product of pRSETa (Invitrogen) and transformed into E. coli BL21 (DE3).
Cells were grown at 37° C. to an OD600 of 0.5. […]
The kinesin motor domain is incubated with microtubules, 1 mM ATP (1:1 MgCl2: Na-ATP), and compound at 23° C. in buffer containing 80 mM K-HEPES (pH 7.0), 1 mM EGTA, 1 mM DTT, 1 mM MgCl2, and 50 mM KCl. […] Free phosphate from the ATP hydrolysis reaction is measured via a quinaldine redlammonium molybdate assay by adding a […] volume of quench C (e.g., to a mixture of 40 μl reaction volume+40 μl stop buffer is then added 120 μl quench C). […] Quench C is a 2:1 ratio of quench A:quench B The reaction is incubated for 5-10 minutes at 23° C., and the absorbance of the phospho-molybdate complex is measured at 540 nm.

| IC50 | SMILES |
| --- | --- |
| ≤ 50 µM | O=C1CC[C@@H]2CC(c3cc(F)ccc3F)=C[C@@H](c3ccccc3)N12 [1-5, (−)-(5S,8aR)-7-(2,5-difluorophenyl)-5-phenyl-1,5,8,8a-tetrahydroindolizin-3(2H)-one] |
| ≤ 50 µM | O=C1CC[C@@H]2C=C(c3cc(F)ccc3F)C[C@@H](c3ccccc3)N12 [1-6, (+)-(5S,8aR)-7-(2,5-difluorophenyl)-5-phenyl-1,5,6,8a-tetrahydroindolizin-3(2H)-one] |
